Results from paper PMC2731040 (BMC Clinical Pharmacology, 2009).

Molecular target: T1, MAO-B (Homo sapiens, UniProt P27338)
T1 construct: Twelve nondependent cocaine-experienced subjects received deuterium-labeled cocaine-d5 intravenously; from tissue; host or cells: whole body of living human subjects (in vivo); 24-hour urine analysed for PEA
T1 sequence (P27338 1-520): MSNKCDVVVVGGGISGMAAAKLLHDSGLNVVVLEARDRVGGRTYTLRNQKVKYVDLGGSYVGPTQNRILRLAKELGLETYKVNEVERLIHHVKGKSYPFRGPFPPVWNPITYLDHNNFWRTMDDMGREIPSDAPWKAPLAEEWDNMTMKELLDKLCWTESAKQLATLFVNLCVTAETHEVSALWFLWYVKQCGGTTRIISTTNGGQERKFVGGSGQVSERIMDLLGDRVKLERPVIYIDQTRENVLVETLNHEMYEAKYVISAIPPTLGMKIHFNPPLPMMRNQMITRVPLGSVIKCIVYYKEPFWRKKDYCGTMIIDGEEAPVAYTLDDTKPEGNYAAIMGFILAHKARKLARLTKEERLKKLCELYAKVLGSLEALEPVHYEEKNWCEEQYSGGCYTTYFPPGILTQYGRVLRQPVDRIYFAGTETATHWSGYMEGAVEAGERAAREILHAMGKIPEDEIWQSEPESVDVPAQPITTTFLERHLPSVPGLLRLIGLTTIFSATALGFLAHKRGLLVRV
Format: in vivo
Settings: Day 3–4 After Cocaine Preselegiline
Source text: The interactions between MAO-A inhibitors and cocaine administered are largely unexplored. […] Therefore, measurement of dopaminergic and noradrenergic tone may be important in predicting toxic events. We measured dopaminergic tone with the surrogate marker of plasma HVA, the major brain metabolite of dopamine, and serum levels of prolactin, a hormone whose secretion is inhibited by dopamine. The surrogate for noradrenergic tone was urine concentrations of MHPG-S. In order to assess the degree of MAO-A and MAO-B inhibition, we assayed concentrations of a substrate of MAO-B, phenylethylamine (PEA). PEA would be expected to increase with MAO-B inhibition, and concentrations of MHPG-S, which is a metabolite of norepinephrine produced by MAO-A primarily in the brain [20], would be expected to decrease.
When subjects were in the GCRC, all urine was collected and volumes recorded. Following each cocaine infusion, urine was collected in fractions from 0 to 24, 24 to 48, and 48 to 72 hours (timed from the start of the infusion). Samples were then frozen at -70°C until analyzed. […] A qualitative screen for drugs of abuse was obtained every other day for the entire study period.

COC(=O)[C@H]1[C@@H](OC(=O)c2ccccc2)C[C@@H]2CC[C@H]1N2C [Cocaine, cocaine]
Total Amount of PEA Excreted in the 24 Hour Urine Collection: 0.003 ± 0.004 mg
